This note sets out measurements from ChEMBL document CHEMBL3808387, “Discovery of IWP-051, a Novel Orally Bioavailable sGC Stimulator with Once-Daily Dosing Potential in Humans” (ACS Med Chem Lett, 2016).

Series [1] can be described thus: Intrinsic clearance in Sprague-Dawley rat liver microsomes assessed per mg of protein at 2 uM after 10 to 30 mins by LC/MS/MS analysis in presence of NADPH. The format is ADME. Particulars: read-out: CLH. A general note: Liver microsomes are vesicles of endoplasmic reticulum, rich in cytochrome P450 enzymes.
Series [2] can be described thus: Terminal half-life in Sprague-Dawley rat at 1 mg/kg, iv by LC-MS/MS analysis. The note with it: in vivo, read-out: beta t1/2. The class given is ADME, organism-based.
Series [3] is described as follows: Oral bioavailability in Sprague-Dawley rat at 10 mg/kg by LC-MS/MS analysis. The format is ADME, organism-based. The note with it: in vivo.
Series [4] has as its target T1, Kappa-type opioid receptor (Homo sapiens, UniProt P41145). The experiment in a line: Binding affinity to KOP receptor (unknown origin).
The target in series [5] is Soluble guanylate cyclase (Homo sapiens, UniProt O75343+P33402+Q02108+Q02153). The experiment in a line: Activation of SGC in HEK293 cells assessed as cGMP production after 20 mins by LC-MS/MS analysis in presence of NO-donor DETA-NONOate. The format is cell-based.
Chain of Soluble guanylate cyclase (Q02153 whole entry): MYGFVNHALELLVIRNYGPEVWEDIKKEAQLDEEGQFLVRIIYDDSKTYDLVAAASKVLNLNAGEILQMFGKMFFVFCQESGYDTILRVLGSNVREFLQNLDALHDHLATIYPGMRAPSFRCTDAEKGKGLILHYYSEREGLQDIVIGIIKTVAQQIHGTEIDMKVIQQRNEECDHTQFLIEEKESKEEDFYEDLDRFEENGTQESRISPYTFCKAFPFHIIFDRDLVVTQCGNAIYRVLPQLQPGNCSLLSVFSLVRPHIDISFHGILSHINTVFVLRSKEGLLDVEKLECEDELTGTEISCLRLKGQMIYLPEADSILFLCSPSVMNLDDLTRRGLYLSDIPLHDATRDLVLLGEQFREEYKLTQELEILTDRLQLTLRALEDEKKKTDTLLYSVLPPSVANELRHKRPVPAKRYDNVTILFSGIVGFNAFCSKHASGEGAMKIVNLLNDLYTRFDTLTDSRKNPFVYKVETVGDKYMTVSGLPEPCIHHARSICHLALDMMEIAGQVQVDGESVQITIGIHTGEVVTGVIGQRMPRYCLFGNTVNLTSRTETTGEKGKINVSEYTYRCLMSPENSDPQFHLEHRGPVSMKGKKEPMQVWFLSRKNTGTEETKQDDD
Chain of Soluble guanylate cyclase (O75343 whole entry): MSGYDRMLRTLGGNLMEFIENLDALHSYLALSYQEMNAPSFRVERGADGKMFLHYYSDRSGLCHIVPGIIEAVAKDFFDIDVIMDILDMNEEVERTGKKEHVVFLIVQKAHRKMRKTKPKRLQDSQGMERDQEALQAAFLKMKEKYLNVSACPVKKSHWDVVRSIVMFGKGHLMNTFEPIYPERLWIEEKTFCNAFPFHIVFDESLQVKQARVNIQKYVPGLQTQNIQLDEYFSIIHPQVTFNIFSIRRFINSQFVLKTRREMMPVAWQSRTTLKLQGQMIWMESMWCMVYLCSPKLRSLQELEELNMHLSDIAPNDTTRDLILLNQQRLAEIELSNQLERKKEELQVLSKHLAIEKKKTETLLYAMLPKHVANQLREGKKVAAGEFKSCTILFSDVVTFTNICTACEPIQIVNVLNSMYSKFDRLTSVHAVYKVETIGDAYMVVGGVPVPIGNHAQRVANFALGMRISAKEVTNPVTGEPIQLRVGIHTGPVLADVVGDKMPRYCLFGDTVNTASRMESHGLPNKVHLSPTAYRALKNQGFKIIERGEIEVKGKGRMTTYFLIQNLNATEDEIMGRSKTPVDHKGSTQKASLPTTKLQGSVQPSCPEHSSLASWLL
Chain of Soluble guanylate cyclase (P33402 whole entry): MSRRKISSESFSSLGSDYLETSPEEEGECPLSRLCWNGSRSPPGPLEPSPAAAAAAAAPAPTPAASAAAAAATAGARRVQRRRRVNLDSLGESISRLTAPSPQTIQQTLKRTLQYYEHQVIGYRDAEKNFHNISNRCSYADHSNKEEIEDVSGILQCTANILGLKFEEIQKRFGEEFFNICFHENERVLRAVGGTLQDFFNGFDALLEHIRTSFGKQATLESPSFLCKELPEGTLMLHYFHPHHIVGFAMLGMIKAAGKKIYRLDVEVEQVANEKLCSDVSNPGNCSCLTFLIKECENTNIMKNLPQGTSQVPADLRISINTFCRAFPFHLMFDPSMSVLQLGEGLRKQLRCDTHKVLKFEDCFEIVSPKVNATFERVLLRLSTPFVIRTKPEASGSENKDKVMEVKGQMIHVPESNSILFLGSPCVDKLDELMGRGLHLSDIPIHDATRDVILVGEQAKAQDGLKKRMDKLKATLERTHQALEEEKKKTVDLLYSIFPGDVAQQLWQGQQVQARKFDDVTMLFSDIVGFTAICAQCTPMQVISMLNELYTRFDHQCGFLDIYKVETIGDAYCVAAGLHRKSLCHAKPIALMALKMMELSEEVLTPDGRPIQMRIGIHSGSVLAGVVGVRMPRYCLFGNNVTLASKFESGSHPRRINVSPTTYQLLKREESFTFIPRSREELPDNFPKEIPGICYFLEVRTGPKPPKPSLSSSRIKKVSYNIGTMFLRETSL
Chain of Soluble guanylate cyclase (Q02108 whole entry): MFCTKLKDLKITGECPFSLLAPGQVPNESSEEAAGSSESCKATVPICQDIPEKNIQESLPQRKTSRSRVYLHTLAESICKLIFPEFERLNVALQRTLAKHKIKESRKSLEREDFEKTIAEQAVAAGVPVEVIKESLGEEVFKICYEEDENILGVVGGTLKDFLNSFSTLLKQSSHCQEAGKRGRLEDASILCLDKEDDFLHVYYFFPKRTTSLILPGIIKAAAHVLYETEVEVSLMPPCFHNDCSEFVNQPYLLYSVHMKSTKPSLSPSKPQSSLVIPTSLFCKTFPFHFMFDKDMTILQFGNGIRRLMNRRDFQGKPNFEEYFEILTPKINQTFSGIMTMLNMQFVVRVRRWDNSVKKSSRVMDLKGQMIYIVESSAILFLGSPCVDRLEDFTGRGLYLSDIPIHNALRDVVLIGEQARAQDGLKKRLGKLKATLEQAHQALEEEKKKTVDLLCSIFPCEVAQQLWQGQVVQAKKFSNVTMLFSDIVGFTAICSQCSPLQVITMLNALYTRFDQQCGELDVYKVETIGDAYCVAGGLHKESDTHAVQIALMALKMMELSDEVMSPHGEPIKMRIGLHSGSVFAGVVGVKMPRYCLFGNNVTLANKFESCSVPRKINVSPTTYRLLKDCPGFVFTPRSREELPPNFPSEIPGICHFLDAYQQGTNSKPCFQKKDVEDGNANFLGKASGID
Series [6] is described as follows: Intrinsic clearance in human liver microsomes assessed per mg of protein at 2 uM after 10 to 30 mins by LC/MS/MS analysis in presence of NADPH. The note with it: read-out: CLH. The format is ADME.
Series [7] has as its target T1, Kappa-type opioid receptor. The experiment in a line: Agonist activity at KOP receptor (unknown origin).
Series [8] is described as follows: Thermodynamic solubility of the compound at pH 9.2. The format is physicochemical. Particulars: buffer, read-out: Therm_solubility.
Series [9] in a line: AUC(0 to infinity) in CD-1 mouse at 0.1 mg/kg, iv or 1 mg/kg, po by LC-MS/MS analysis. The note with it: in vivo. The class given is ADME, organism-based.
Series [10] is described as follows: Thermodynamic solubility of the compound at pH 7.4. The note with it: buffer, read-out: Therm_solubility. The format is physicochemical.
The test system of series [11] is Rattus norvegicus. Description: fCmax in Sprague-Dawley rat at 1 mg/kg, po after 5 hrs by LC-MS/MS analysis. The class given is ADME, organism-based. The note with it: in vivo.
A short description of series [12]: Apparent permeability of compound from apical to basolateral side. The class given is physicochemical. Particulars: not told.
Series [13] can be described thus: Cmax in CD-1 mouse at 1 mg/kg, po by LC-MS/MS analysis. The class given is ADME, organism-based. Further details: dose 1 mg/kg, route oral. The note with it: in vivo.
Series [14] in a line: AUC(0 to infinity) in Beagle dog at 0.1 mg/kg, iv or 1 mg/kg, po by LC-MS/MS analysis. The class given is ADME, organism-based, Canis lupus familiaris. The note with it: in vivo.
The subject of series [15] is Rattus norvegicus. The experiment in a line: Reduction in mean arterial pressure in normotensive Sprague-Dawley rat at 10 mg/kg, po measured after 12 to 24 hrs. The class given is functional, Artery.
The target of series [16] is Dual specificity calcium/calmodulin-dependent 3',5'-cyclic nucleotide phosphodiesterase 1B (Homo sapiens) (UniProt Q01064). The experiment in a line: Inhibition of PDE1B (unknown origin) at 10 uM.
Series [17] in a line: AUC(0 to infinity) in Sprague-Dawley rat at 0.1 mg/kg, iv or 1 mg/kg, po by LC-MS/MS analysis. The class given is ADME, organism-based. The note with it: in vivo.
Series [18] in a line: Cmax in Beagle dog at 1 mg/kg, po by LC-MS/MS analysis. The format is ADME, organism-based, Canis lupus familiaris. The arrangement: dose 1 mg/kg, route oral. Particulars: in vivo.
A short description of series [19]: Cmax in Sprague-Dawley rat at 1 mg/kg, po by LC-MS/MS analysis. The class given is ADME, organism-based. The arrangement: dose 1 mg/kg, route oral. Particulars: in vivo.
Series [20] has as its target 3',5'-cyclic-AMP phosphodiesterase 4D (Homo sapiens) (UniProt Q08499). Description: Inhibition of PDE4D2 (unknown origin) at 10 uM.
The nature of series [21]: Oral bioavailability in CD-1 mouse at 1 mg/kg by LC-MS/MS analysis. The format is ADME, organism-based. Particulars: in vivo.
Series [22] is described as follows: Volume of distribution at steady state in Sprague-Dawley rat at 0.1 mg/kg, iv or 1 mg/kg, po by LC-MS/MS analysis. The format is ADME, organism-based. The note with it: in vivo, read-out: Vdss.
Series [23] is described as follows: Tmax in Beagle dog at 0.1 mg/kg, iv or 1 mg/kg, po by LC-MS/MS analysis. The class given is ADME, organism-based, Canis lupus familiaris. The note with it: in vivo.
The nature of series [24]: Oral bioavailability in Beagle dog at 1 mg/kg by LC-MS/MS analysis. The class given is ADME, organism-based, Canis lupus familiaris. The note with it: in vivo.
Series [25] deals with cAMP and cAMP-inhibited cGMP 3',5'-cyclic phosphodiesterase 10A (Homo sapiens) (UniProt Q9Y233). Description: Inhibition of PDE10A (unknown origin) at 10 uM.
Chain of cAMP and cAMP-inhibited cGMP 3',5'-cyclic phosphodiesterase 10A (Homo sapiens) (Q9Y233 whole entry): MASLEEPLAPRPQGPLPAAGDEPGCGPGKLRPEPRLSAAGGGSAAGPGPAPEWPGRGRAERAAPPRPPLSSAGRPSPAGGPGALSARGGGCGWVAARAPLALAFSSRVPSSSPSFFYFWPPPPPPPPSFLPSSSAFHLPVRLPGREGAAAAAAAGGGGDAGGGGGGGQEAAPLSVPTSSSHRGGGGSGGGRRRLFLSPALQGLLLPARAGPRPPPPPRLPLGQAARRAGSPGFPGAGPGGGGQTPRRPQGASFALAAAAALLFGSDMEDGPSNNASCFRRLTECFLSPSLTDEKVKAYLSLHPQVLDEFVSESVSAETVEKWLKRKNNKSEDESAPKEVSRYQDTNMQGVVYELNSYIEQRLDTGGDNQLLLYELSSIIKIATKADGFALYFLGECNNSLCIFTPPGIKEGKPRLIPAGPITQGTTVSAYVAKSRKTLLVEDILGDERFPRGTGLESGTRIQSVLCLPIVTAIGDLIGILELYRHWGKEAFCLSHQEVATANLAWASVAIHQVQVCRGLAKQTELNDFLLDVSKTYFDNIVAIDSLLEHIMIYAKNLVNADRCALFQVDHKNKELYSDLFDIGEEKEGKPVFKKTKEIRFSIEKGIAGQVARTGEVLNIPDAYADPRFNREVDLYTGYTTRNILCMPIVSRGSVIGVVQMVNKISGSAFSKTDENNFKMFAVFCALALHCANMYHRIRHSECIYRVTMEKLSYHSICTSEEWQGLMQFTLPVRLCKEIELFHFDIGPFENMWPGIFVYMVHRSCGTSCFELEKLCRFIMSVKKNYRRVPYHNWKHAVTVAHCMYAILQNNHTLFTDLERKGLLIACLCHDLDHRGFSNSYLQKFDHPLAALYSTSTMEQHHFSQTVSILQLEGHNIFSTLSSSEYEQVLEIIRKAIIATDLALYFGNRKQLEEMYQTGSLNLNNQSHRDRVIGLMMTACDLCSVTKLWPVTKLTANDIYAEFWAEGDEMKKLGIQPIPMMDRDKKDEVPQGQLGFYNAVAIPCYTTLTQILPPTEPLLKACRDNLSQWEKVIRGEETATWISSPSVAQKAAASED
Series [26] is described as follows: Volume of distribution at steady state in Beagle dog at 0.1 mg/kg, iv or 1 mg/kg, po by LC-MS/MS analysis. The class given is ADME, organism-based, Canis lupus familiaris. Particulars: in vivo, read-out: Vdss.
Series [27] is described as follows: Dissociation constant, pKa of the compound. The format is physicochemical.
Series [28] has as its system Rattus norvegicus. Description: Reduction in mean arterial pressure in normotensive Sprague-Dawley rat at 30 mg/kg, po measured after 12 to 24 hrs. The format is functional, Artery.
A short description of series [29]: Oral bioavailability in Sprague-Dawley rat at 1 mg/kg by LC-MS/MS analysis. The format is ADME, organism-based. Particulars: in vivo.
A short description of series [30]: Volume of distribution at steady state in CD-1 mouse at 0.1 mg/kg, iv or 1 mg/kg, po by LC-MS/MS analysis. The format is ADME, organism-based. Particulars: in vivo, read-out: Vdss.
A short description of series [31]: Tmax in Sprague-Dawley rat at 0.1 mg/kg, iv or 1 mg/kg, po by LC-MS/MS analysis. The format is ADME, organism-based. Particulars: in vivo.
Series [32] has as its target cGMP-inhibited 3',5'-cyclic phosphodiesterase 3A (Homo sapiens) (UniProt Q14432). Description: Inhibition of PDE3A (unknown origin) at 10 uM.
A short description of series [33]: Tmax in CD-1 mouse at 0.1 mg/kg, iv or 1 mg/kg, po by LC-MS/MS analysis. The format is ADME, organism-based. Particulars: in vivo.
Series [34] addresses cGMP-specific 3',5'-cyclic phosphodiesterase (Homo sapiens) (UniProt O76074). The experiment in a line: Inhibition of PDE5 (unknown origin) at 10 uM.
For series [35], the system named is Rattus norvegicus. Description: Reduction in mean arterial pressure in po dosed normotensive Sprague-Dawley rat measured after 12 to 24 hrs. The class given is functional. The note with it: Artery.
The target of series [36] is cGMP-dependent 3',5'-cyclic phosphodiesterase (Homo sapiens) (UniProt O00408). Description: Inhibition of PDE2A (unknown origin) at 10 uM.
Chain of cGMP-dependent 3',5'-cyclic phosphodiesterase (Homo sapiens) (O00408 whole entry): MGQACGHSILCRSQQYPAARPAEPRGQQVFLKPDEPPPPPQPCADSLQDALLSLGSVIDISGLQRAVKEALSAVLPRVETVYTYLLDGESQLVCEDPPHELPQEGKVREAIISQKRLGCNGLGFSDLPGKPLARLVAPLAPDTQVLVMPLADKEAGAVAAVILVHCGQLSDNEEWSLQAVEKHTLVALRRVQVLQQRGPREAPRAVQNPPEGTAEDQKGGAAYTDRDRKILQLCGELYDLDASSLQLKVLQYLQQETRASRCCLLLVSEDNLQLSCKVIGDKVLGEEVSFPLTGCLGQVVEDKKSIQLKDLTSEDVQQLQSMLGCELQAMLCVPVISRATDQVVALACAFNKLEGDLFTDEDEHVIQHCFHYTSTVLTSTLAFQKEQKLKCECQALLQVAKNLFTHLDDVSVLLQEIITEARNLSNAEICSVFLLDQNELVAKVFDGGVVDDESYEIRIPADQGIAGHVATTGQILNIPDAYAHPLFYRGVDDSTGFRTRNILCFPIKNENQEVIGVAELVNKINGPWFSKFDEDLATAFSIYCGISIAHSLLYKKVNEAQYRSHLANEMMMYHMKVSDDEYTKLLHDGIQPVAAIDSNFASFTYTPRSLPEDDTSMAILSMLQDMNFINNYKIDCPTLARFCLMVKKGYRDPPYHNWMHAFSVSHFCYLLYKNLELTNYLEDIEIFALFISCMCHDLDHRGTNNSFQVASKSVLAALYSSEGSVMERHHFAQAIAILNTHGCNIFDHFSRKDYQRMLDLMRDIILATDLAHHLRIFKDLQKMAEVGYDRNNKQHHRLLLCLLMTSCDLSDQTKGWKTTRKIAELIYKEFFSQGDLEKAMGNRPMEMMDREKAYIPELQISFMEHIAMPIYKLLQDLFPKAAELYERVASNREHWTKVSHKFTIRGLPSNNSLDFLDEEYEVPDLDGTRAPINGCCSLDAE
The target in series [37] is T1, Kappa-type opioid receptor. Description: Binding affinity to KOP receptor (unknown origin) at 10 uM.

In brackets after ≈: the same amount, converted by molar mass.

T1 sequence (P41145 whole entry): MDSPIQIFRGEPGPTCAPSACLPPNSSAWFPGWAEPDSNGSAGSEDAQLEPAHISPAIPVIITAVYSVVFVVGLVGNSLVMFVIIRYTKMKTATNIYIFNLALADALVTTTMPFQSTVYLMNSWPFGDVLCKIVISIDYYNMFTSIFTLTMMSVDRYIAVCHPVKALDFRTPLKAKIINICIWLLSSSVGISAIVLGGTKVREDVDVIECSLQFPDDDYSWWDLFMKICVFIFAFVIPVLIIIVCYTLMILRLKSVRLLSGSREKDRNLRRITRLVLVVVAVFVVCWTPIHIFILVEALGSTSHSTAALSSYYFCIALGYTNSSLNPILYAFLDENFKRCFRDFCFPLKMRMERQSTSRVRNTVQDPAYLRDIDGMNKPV

`Nc1ccnc(-c2cc(-c3ccon3)n(Cc3ccccc3F)n2)n1`: the microsomal CLint at 2 µM turned out to be 26 µL/min/mg in [1] and 10 µL/min/mg in series [6]. For the same compound, the half-life in [2] stood at 0.433 h. For the same compound, the bioavailability in series [3] was 53%. Also, in series [4], the 50% inhibitory concentration (IC50) worked out at 1200 nM. The results for the 50% effective concentration (EC50) in [5] and in series [7] were 240 nM and 1500 nM, respectively.

In the case of `Oc1nc(-c2cc(-c3ccon3)n(Cc3ccccc3F)n2)ncc1F`, the results for the solubility thermodynamic in series [8] and in [10] were 142 µg/mL (≈ 400 µM) and 3 µg/mL (≈ 8.44 µM), respectively. The AUC(0-inf) in [9] was 4500 ng·h/mL; in series [14], 41700 ng·h/mL; in [17] it was 25000 ng·h/mL. In addition, the fCmax with Rattus norvegicus [11] turned out to be 80 nM. Besides, the Papp A→B in [12] stood at 21.8 ×10⁻⁶ cm/s. Besides, the peak concentration (Cmax) in series [13] was determined as 1000 ng/mL; in [18], 3500 ng/mL; in [19], 1500 ng/mL. In addition, the Activity with Rattus norvegicus [15] is 10 mmHg; in the series on Rattus norvegicus [28], -30 mmHg; in the series on Rattus norvegicus [35] it was “Dose-dependent effect”; in series [37], 21%. For the same compound, the inhibition in series [16], in series [20], in series [25], in series [32], in series [34] and in [36] was less than 30% in each case. For the same compound, the bioavailability was more than 100% in series [21], 45% in [24] and 96% in series [29]. The Vd in series [22] was 0.18 L/kg; in series [26] it was 0.095 L/kg; in [30], 1.3 L/kg. Moreover, the Tmax in [23] worked out at 3.3 h; in series [31] it was 5.3 h; in [33] it was 1.7 h. In [27], this compound displayed a pKa of 5.75. Besides, the minimal effective dose in the series on Rattus norvegicus [35] (read-out: MED) stood at 1 mg/kg.

Broadly, the bioavailability is the share of a dose that reaches the circulation, judged against a reference dose that is usually intravenous. High values mean much systemic uptake, low ones little systemic uptake. Broadly, the IC50 is the concentration that inhibits the measured activity by half. Lower therefore signals greater potency. For orientation: EC50 means the concentration that produces a half-maximal response. Usually AUC(0-inf) stands for total exposure, with the tail of the curve extrapolated. A higher AUC(0-inf) goes with high exposure. By Papp A→B is commonly meant how fast a substance crosses the layer from the apical side. In general, Cmax refers to the maximum level reached in the sampled fluid or tissue. The inhibition is how much of the control response was suppressed. Broadly, the Tmax is the time at which the peak concentration occurs. The term pKa denotes the pH at which an ionisable group is half protonated. A lower pKa goes with a stronger acid or weaker base.
